The values that follow come from PubChem BioAssay (NCI).

Where “and” joins values, the source holds several entries; their conditions need not be identical. Identical values can stand only once.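 In this assay, cells in 96-well plates receive the compound at five concentrations for 48 hours. Endpoints are linearly interpolated between the surrounding concentrations. GI50 is the concentration that inhibits growth by half. TGI: total growth inhibition.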

What all share (assay): NCI tumour cell line growth inhibition, 48 h
In experiment [1] the test system is NCI-H23 lung.
The subject of experiment [2] is HCT-15 colon.
In experiment [3] the test system is HOP-62 NSCLC.
The test system of experiment [4] is A549 NSCLC.
Experiment [5] deals with 786-0 renal.
Experiment [6] has as its system MCF7 breast.
The test system of experiment [7] is HOP-92 NSCLC.
In experiment [8] the test system is HS 578T breast.
Experiment [9] concerns U251 CNS.
Experiment [10] deals with OVCAR-4 ovarian.

Take `CC#CC#C/C=C1\C=CC2(OC=CC2OC(C)=O)O1` (configuration not stated): the TGI was 42.9 µM and 16.5 µM in experiment [1]; 30 µM and 27.8 µM in [2]; above 100 µM in experiment [3]; above 100 µM in experiment [4]; > 100 µM and 33.6 µM in experiment [5]; 30.8 µM in experiment [6]. For the same molecule, the TGI was 51.6 µM and 44.1 µM in experiment [7]; above 100 µM in experiment [8]; 43.1 µM and 33.2 µM in experiment [9]; above 100 µM in [10]. Also, the GI50 in [2] is 16.4 µM and 4.78 µM; in [5], 44.3 µM and 18.1 µM; in experiment [10], 29.1 µM.

Turning to `C[C@@H](Oc1cc(-n2cnc3ccc(OCC4CCN(C)CC4)cc32)sc1C(N)=O)c1ccccc1Cl`, the GI50 is 0.103 µM in experiment [1]; 0.0998 µM in experiment [2]; 0.0977 µM in [3]; 0.0919 µM in [4]; 0.315 µM in experiment [5]; 0.0123 µM in experiment [6]. Further, the GI50 was 0.156 µM in experiment [7], 0.0759 µM in experiment [8], 0.106 µM in [9] and 0.477 µM in experiment [10]. The TGI in [1] was 3.64 µM; in [2], 3.39 µM; in experiment [3], 3.55 µM; in experiment [4] it was 2.93 µM; in experiment [5], 3.92 µM; in [6], 3.68 µM. The TGI was found to be 2.51 µM in experiment [7], 0.502 µM in experiment [8], 3.86 µM in experiment [9] and 4.81 µM in experiment [10].

As to `CCOC(=O)c1ccc(N(C=O)CCC(=O)CCl)cc1`, the GI50 in [1] was 0.483 µM; in [2] it was 0.0487 µM; in experiment [3], 0.485 µM; in experiment [4], 1.37 µM; in experiment [5] it was 0.333 µM; in experiment [6], 0.0532 µM. For the same molecule, the GI50 in [7] is 0.064 µM; in experiment [8], 0.311 µM; in [9], 0.342 µM; in [10], 0.079 µM. Also, the TGI in [1] turned out to be 7.81 µM; in experiment [2], 2.58 µM; in [3] it was 13.4 µM; in experiment [4], 12.7 µM; in experiment [5], 4.08 µM; in experiment [7] it was 0.794 µM. Moreover, the figures for the TGI in experiment [8], in [9] and in experiment [10] were 2.89 µM, 10.8 µM and 3.61 µM, respectively.

With `O=C1NC(=O)[C@@H](c2c[nH]c3ccccc23)[C@@H]1c1c[nH]c2ccccc12`, the GI50 in experiment [1], in experiment [2], in [3], in experiment [4], in experiment [5] and in experiment [6] was above 25 µM in each case. For the same molecule, the GI50 in experiment [7] was 21.2 µM; in [8], 24.8 µM; in [9], above 25 µM; in [10] it was above 25 µM. The TGI in experiment [1], in experiment [2], in [3], in experiment [4], in experiment [5] and in [6] was above 25 µM in each case. The TGI in experiment [7], in experiment [8], in experiment [9] and in experiment [10] was above 25 µM in each case.

Turning to `COc1cc(/C=C/C(=N\NC(=S)NN)c2sc(NNC(C)=O)nc2C)ccc1O`, the TGI in experiment [1], in experiment [2], in experiment [3], in experiment [4], in [5] and in [6] was above 100 µM throughout. The TGI in experiment [7], in experiment [8], in [9] and in experiment [10] was above 100 µM in each case.

Turning to `CCCCCCCCCCCC1=NC(C)(C)CN1CC(C)O` (configuration not stated), the GI50 was 4.36 µM in [1]; 1.95 µM in experiment [2]; 4.75 µM in [3]; 6.83 µM in experiment [4]; 11.8 µM in [5]; 2.05 µM in [6]. Further, the GI50 in experiment [7] was 2.06 µM; in experiment [8], 2.6 µM; in experiment [9], 3.3 µM; in experiment [10], 10.6 µM. Besides, the TGI was found to be 16 µM in [1]; 4.75 µM in experiment [2]; 17.4 µM in experiment [3]; 22.6 µM in experiment [4]; 25.9 µM in [5]; 4.77 µM in experiment [6]. The TGI turned out to be 13.6 µM in experiment [7], 17.3 µM in [8], 12 µM in experiment [9] and 22.4 µM in experiment [10].

Consider `Clc1ccc2nc(Cl)c3ccccc3c2c1`, for which the GI50 is 74.9 µM in [1]; above 100 µM in [2]; 11.5 µM in experiment [3]; 5.92 µM in experiment [4]; 9.32 µM in experiment [5]; 96 µM in experiment [6]. Further, the GI50 in experiment [7] is 11.9 µM; in experiment [8], 8.21 µM; in experiment [9] it was 3.21 µM; in experiment [10], 2.03 µM. For the same molecule, the TGI was above 100 µM in [1]; above 100 µM in [2]; 64.2 µM in experiment [3]; above 100 µM in experiment [4]; 60.8 µM in experiment [5]; above 100 µM in [6]. For the same molecule, the TGI was found to be 29.7 µM in [7], 72 µM in [8], 19.9 µM in experiment [9] and 5.02 µM in experiment [10].

`CC(C)=CC(=O)N[C@@H]1CC2CCC3C(CC[C@@]4(C)C3CC[C@@H]4C(C)N(C)C)[C@@]2(C)C[C@@H]1O` (some centres not stated): the GI50 in [1] is 5.06 µM; in [2] it was 1.39 µM; in experiment [3] it was 4.3 µM; in experiment [4], 7.27 µM; in [5] it was 4.31 µM; in experiment [6], 2.95 µM. Besides, the GI50 in experiment [7] is 2.37 µM; in experiment [8], 6.12 µM; in experiment [9], 3.97 µM; in [10], 4.32 µM. For the same molecule, the TGI in [1] was found to be 39.1 µM; in experiment [2], 5.01 µM; in experiment [3], 9.85 µM; in experiment [4] it was 33.8 µM; in experiment [5], 14.2 µM; in experiment [6] it was 21.1 µM. Moreover, the TGI in [7] is 24.2 µM; in experiment [8], 25.3 µM; in experiment [9], 22 µM; in experiment [10], above 62 µM.
